Measured values: US8394786B2, “Quinazoline derivatives” (Janssen Pharmaceutica N.V., priority 2003, dated 2013)

What was measured:
A431 cells = test: Proliferation assay on the squamous carcinoma cell line A431 cells (C5); format: cell-based; details: Homo sapiens, A-431; 72 hours with compounds; MTT cell viability assay; read-out: A431 cell (C5): pIC50 (converted)
Procedure: The squamous carcinoma cell line (A431) was used in a cell proliferation assay, to assess the inhibitory effect of the compounds in whole cells.
In a first step the A431 cells were incubated for 24 hours in the presence of 10% FCS serum. In the second step the cells were incubated for 72 hours with the compounds to be tested at a final concentration of 100 ng/ml. The effect of the compounds on the cell proliferation was finally assessed in a standard MTT cell viability assay.

SKOV3 cells = test: Serum starved proliferation assay on the ovarian carcinoma SKOV3 cells (C3); format: cell-based; details: Homo sapiens, SK-OV-3, 72 h, EGF stimulated (100 ng/ml, 72 hours, serum free) or 72 hours with compounds; MTT cell viability assay; read-out: SKOV3 cell (C3): pIC50 (converted)
Outline: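 SKOV3 cells grown 24 h in 10% FCS, then treated with compound under serum-free conditions (37 °C, 5% CO2) and stimulated 72 h with EGF at 100 ng/ml final; read-out by MTT viability. Alternative format: compound for 72 h after the same 24 h FCS step, also by MTT.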

EGFR [1] = target: T1, EGFR (Homo sapiens, UniProt P00533); test: ELISA assay of EGFR tyrosine kinase activity (C4); format: biochemical; details: poly(Glu, Tyr) coated plate, 5 μM ATP, room temperature 10 min
Procedure: The EGFR ELISA is generally described by Yang, E. B. et al., 2001, Biochimica et Biophysica Acta, 1550; 144.
For the determination of EGFR tyrosine kinase activity, 100 μl of 0.4 μg/ml poly(Glu, Tyr) in PBS was coated per well on a 96-well microplate at 37° C. overnight. […] After washing three times with PBS the plates were either used immediately or stored at 4° C. Prior to the determination of the EGFR tyrosine kinase activity, the coated plates were washed two times with PBS. Next, to each well 88 μl of an ATP dilution (50 mM Tris HCl pH 8.0, 10 mM MgCl2, 100 μM Na3VO4, 1 mM DTT, 5 μM ATP) and 2 μl with various concentrations of the compounds to be tested, were added. The EGFR tyrosine kinase-catalysed reaction was started by the addition of 10 μl of diluted EGFR (dilution→0.05 μg per well enzyme diluted in 50 mM TrisHCl pH 8.0+0.1% BSA). After incubation at room temperature for 10 min, the reaction was stopped by washing five times with PBS with 0.1% Tween 20. Subsequently […] of recombinant anti-phosphotyrosine horseradish peroxidase conjugate (1:2500) in BSA (10 mg/ml in PBS) was added. After incubation at room temperature for 1 h, the microplate was washed five times with PBS/Tween 20. After the microplate was incubated with 100 μl of TMB-ELISA (1-step Ultra TMB-ELISA, Pierce) until colour development, 100 μl of 0.5 M H2SO4 was added to stop the reaction, and it was read in a microplate reader at 450-655 nm.
Target sequence in this assay (P00533 25-1210): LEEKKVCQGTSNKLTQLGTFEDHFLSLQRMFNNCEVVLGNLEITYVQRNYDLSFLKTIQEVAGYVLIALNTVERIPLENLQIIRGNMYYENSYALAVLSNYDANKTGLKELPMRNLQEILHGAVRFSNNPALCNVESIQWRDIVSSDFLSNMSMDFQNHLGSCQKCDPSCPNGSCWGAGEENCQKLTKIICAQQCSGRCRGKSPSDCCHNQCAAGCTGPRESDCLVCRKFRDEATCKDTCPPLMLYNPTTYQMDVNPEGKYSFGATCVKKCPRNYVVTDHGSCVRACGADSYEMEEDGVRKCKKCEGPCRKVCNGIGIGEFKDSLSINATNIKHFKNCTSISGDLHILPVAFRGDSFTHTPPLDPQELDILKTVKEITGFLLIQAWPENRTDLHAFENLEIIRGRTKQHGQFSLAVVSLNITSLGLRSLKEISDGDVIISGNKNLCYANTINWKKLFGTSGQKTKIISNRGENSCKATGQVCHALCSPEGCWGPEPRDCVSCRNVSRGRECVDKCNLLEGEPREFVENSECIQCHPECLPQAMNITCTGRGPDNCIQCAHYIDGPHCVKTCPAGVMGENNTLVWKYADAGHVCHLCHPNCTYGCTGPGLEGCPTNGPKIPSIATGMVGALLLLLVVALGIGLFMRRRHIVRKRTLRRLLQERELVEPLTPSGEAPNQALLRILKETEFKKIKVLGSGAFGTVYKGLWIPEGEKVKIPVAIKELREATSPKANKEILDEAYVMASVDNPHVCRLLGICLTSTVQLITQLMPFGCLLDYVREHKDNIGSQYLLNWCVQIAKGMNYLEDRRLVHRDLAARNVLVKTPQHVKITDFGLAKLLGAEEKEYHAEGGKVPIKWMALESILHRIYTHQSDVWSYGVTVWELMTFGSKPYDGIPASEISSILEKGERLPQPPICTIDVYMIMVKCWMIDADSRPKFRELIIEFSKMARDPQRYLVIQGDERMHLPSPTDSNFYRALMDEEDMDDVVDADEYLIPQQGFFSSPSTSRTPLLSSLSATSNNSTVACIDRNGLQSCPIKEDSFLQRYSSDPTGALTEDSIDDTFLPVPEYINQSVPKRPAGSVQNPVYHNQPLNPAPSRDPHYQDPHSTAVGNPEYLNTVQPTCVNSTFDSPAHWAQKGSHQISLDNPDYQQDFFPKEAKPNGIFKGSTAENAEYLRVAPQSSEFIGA

EGFR [2] = target: T1, EGFR; test: In vitro inhibition of EGFR using a scintillant proximity assay (C1); format: biochemical; set-up: 0.5 μg EGFR-kinase domain/well; details: EGFR-kinase domain, poly(GT)biotin, 5.0 μM unlabeled ATP, 30° C. 60 minutes; read-out: EGFR SPA (C1): IC50
Procedure: In the present EGFR SPA kinase reaction assay, a kinase substrate consisting of biotinylated poly(L-glutamic acid-L-tyrosine) (poly(GT)biotin), is incubated with the aforementioned protein in the presence of (^33P) radiolabeled ATP. (^33P) phosphorylation of the substrate is subsequently measured as light energy emitted using streptavidin-coated SPA beads (Amersham Pharmacia Biotech) by trapping and quantifying the binding of the biotin tagged and radiolabeled substrate.
The EGFR SPA kinase reaction is performed at 30° C. for 60 minutes in a 96-well microtiter plate. For each of the tested compounds a full dose response 1·10^−6M to 1·10^−10M has been performed. IRESSA® and Tarceva™ (erlotinib) were used as reference compounds. The 100 μl reaction volume contains 54.5 mM TrisHCl pH 8.0, 10 mM MgCl2, 100 μM Na3VO4, 5.0 μM unlabeled ATP, 1 mM DTT, 0.009% BSA, 0.8 μCi ^33P-ATP, 0.35 μg/well poly(GT)biotin and 0.5 μg EGFR-kinase domain/well. The reaction is stopped by adding to each well 100 μl of the streptavidin beads (10 mg/ml in PBS+100 mM EDTA+100 μM ATP). The plates are than shaked at 300 rpm for 30 min to allow binding of the biotinylated substrate to the streptavidin coated beads. Than the beads are allowed to settle at the bottom of the plate for 30 minutes. The microtiterplates are centrifuges at 800 rpm for 10 minutes and the amount of phosphorylated (^33P) Poly(GT)biotin is determined by counting (30 sec/well) in a microtiterplate scintillation counter.
Target sequence in this assay (P00533 712-979 limits assumed): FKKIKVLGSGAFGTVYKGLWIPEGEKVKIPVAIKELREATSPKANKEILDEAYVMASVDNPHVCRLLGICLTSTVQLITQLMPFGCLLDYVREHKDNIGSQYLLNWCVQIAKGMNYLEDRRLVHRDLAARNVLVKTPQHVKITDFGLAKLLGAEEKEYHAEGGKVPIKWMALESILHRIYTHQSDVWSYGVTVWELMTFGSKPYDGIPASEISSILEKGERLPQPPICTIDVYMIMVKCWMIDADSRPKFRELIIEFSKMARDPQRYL

EGFR [3] = target: T1, EGFR; test: In vitro inhibition of EGFR, Flash Plate or glass-fiber filter technology (C2); format: biochemical; set-up: 0.5 μg EGFR-kinase domain/well; details: EGFR-kinase domain, 5.0 μM unlabeled ATP, read-out: Kinase activity.(C2): pIC50 (converted)
Outline: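 EGFR kinase domain (0.5 μg/well) phosphorylated poly(GT) with 5.0 μM ATP plus AT^33P, dose response 1·10^−6 to 1·10^−10 M. Flash Plate: biotin-poly(GT), Tris pH 8.0, 30° C, 60 min, scintillation counting. Filter: Tris pH 7.5 with MnCl2, 25° C, 10 min, 33P counted on glass-fiber filter by phosphorimaging.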
Target sequence in this assay (P00533 712-979 limits assumed): as above

| IC50 (A431 cells) [nM] | IC50 (SKOV3 cells) [nM] | IC50 (EGFR [1]) [nM] | IC50 (EGFR [2]) [nM] | IC50 (EGFR [3]) [nM] | melting point [°C] | SMILES |
| --- | --- | --- | --- | --- | --- | --- |
| > 1000 | > 2000 | > 1000 | > 100 | > 10000 |  | COc1cc2ncnc3c2cc1OC(=O)CCCCCOc1c(C)cccc1N3 [Compound 1, 4,6-ethanediylidene-19H-pyrimido[4,5-b][6,13,1]benzodioxaazacyclo-pentadecin-8(9H)-one, 10,11,12,13-tetrahydro-20-methoxy-15-methyl-] |
| > 1000 | > 2000 | > 1000 | > 100 | 100 | 255.5 to 260.2 | COc1cc2ncnc3c2cc1OCCCCCCOc1c(Cl)cccc1N3 [Compound 2, 4,6-ethanediylidene-19H-pyrimido[4,5-b][6,13,1]benzodioxaazacyclo-pentadecine, 15-chloro-8,9,10,11,12,13-hexahydro-20-methoxy-] |
| > 1000 | 1350 | > 1000 | 3.61 | 15.8 | 241.5 to 242.7 | COc1cc2ncnc3c2cc1OCCCCCCOc1ccc(Cl)cc1N3 [Compound 3, 4,6-ethanediylidene-19H-pyrimido[4,5-b][6,13,1]benzodioxaazacyclo-pentadecine, 17-chloro-8,9,10,11,12,13-hexahydro-20-methoxy-] |
